Experimental data from patent US20240158446A1, “CYCLIC COMPOUND HAVING SELECTIVE INHIBITORY ACTION ON KRAS OVER HRAS AND NRAS” (CHUGAI SEIYAKU KABUSHIKI KAISHA, priority 2021, published 2024).
Where a SMILES comes first, the peptide text is derived from it. Bridges are numbered along the chain shown (N, C = ends). [ ]: non-standard residue; d: D form. The star is where a group is joined. hPhe(3-Cl-4-CF3) = N[C@@H](CCc1ccc(C(F)(F)F)c(Cl)c1)C(=O)O; NPrPhe(4-CF3) = CCCN[C@@H](Cc1ccc(C(F)(F)F)cc1)C(=O)O; NMeGly(cPent) = CN[C@H](C(=O)O)C1CCCC1; Pro(4,4-F2) = O=C(O)[C@@H]1CC(F)(F)CN1; Hyp = O=C(O)[C@@H]1C[C@@H](O)CN1; NMeL = CN[C@@H](CC(C)C)C(=O)O; Morpholide = C1CN(*)CCO1; NMeA = CN[C@@H](C)C(=O)O; Ac5c = NC1(C(=O)O)CCCC1; Aze = O=C(O)[C@@H]1CCN1; Ac4c = NC1(C(=O)O)CCC1; NEtG = CCNCC(=O)O; Sar = CNCC(=O)O

Key:
[1] = molecular target: GDP-bound NRAS wild-type protein (Homo sapiens, UniProt P01111); assay: Binding to NRAS by surface plasmon resonance (SPR), Single Cycle Kinetics; details: SPR, GDP-bound NRAS wild-type protein vs GDP-bound KRAS wild-type protein
[2] = molecular target: GDP-bound HRAS wild-type protein (Homo sapiens, UniProt P01112); assay: Binding to HRAS by surface plasmon resonance (SPR), Single Cycle Kinetics; details: SPR, GDP-bound HRAS wild-type protein vs GDP-bound KRAS wild-type protein
[3] = molecular target: GDP-bound KRAS wild-type protein (Homo sapiens, UniProt P01116); assay: Binding to KRAS by surface plasmon resonance (SPR), Single Cycle Kinetics; details: SPR Single Cycle Kinetics, GDP-bound KRAS wild-type protein, 1:1 binding model; read-out: KRAS KD
GDP-bound KRAS wild-type protein, sequence (P01116 whole entry): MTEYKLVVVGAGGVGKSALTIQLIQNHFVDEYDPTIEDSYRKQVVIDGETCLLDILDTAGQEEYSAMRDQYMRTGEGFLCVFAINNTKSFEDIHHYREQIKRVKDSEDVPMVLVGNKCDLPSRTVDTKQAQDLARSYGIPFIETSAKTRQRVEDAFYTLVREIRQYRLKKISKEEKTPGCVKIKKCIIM

GDP-bound HRAS wild-type protein, sequence (P01112 whole entry): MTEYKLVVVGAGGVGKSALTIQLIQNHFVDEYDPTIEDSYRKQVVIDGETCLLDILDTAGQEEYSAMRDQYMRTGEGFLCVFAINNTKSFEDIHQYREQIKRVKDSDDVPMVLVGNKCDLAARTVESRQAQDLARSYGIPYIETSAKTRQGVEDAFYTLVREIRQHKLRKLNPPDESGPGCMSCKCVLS
GDP-bound NRAS wild-type protein, sequence (P01111 whole entry): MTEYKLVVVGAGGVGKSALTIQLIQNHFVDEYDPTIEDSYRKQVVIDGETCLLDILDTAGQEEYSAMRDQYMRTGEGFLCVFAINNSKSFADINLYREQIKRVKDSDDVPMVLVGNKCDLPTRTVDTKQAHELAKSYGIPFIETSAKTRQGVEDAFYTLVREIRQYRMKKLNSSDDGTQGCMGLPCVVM

SMILES | NRAS/KRAS (ratio of KD value for NRAS to KD value for KRAS) [1] | HRAS/KRAS (ratio of KD value for HRAS to KD value for KRAS) [2] | Kd [3]
CCCN1C(=O)CN(C)C(=O)CN(CC)C(=O)[C@H]([C@@H](C)CC)NC(=O)[C@H](CC(C)C)N(C)C(=O)C[C@@H](C(=O)N2CCOCC2)NC(=O)[C@H](C2CCCC2)N(C)C(=O)C2(CCCC2)NC(=O)[C@@H]2CC(F)(F)CN2C(=O)[C@H](CCc2ccc(C(F)(F)F)c(Cl)c2)NC(=O)CN(C)C(=O)[C@@H]1Cc1ccc(C(F)(F)F)cc1 [PP0333] ([NMeL]I[NEtG][Sar][NPrPhe(4-CF3)][Sar][hPhe(3-Cl-4-CF3)][Pro(4,4-F2)][Ac5c][NMeGly(cPent)]D-Morpholide; lactam N-11) | B (a compound having 3 or more and less than 10 is denoted as B) | C (A compound having a KD ratio of 0.1 or more and less than 3 is denoted as C) | 2.4 nM
CCCN1C(=O)CN(C)C(=O)CN(CC)C(=O)[C@H]([C@@H](C)CC)NC(=O)[C@H](CC(C)C)N(C)C(=O)C[C@@H](C(=O)N2CCOCC2)NC(=O)[C@H](C2CCCC2)N(C)C(=O)C2(CCC2)NC(=O)[C@@H]2CC(F)(F)CN2C(=O)[C@H](CCc2ccc(C(F)(F)F)c(Cl)c2)NC(=O)CN(C)C(=O)[C@@H]1Cc1ccc(C(F)(F)F)cc1 [PP0334] ([NMeL]I[NEtG][Sar][NPrPhe(4-CF3)][Sar][hPhe(3-Cl-4-CF3)][Pro(4,4-F2)][Ac4c][NMeGly(cPent)]D-Morpholide; lactam N-11) | B (a compound having 3 or more and less than 10 is denoted as B) | C (A compound having a KD ratio of 0.1 or more and less than 3 is denoted as C) | 4.7 nM
CCCN1C(=O)CN(C)C(=O)CN(CC)C(=O)[C@H]([C@@H](C)CC)NC(=O)[C@H](CC(C)C)N(C)C(=O)C[C@@H](C(=O)N2CCOCC2)NC(=O)[C@H](C2CCCC2)N(C)C(=O)C2(CCCC2)NC(=O)[C@@H]2C[C@@H](OCC)CN2C(=O)[C@H](CCc2ccc(C(F)(F)F)c(Cl)c2)NC(=O)CN(C)C(=O)[C@@H]1Cc1ccc(C(F)(F)F)cc1 [PP0335] ([NMeL]I[NEtG][Sar][NPrPhe(4-CF3)][Sar][hPhe(3-Cl-4-CF3)][Hyp](Et)[Ac5c][NMeGly(cPent)]D-Morpholide; lactam N-11) | B (a compound having 3 or more and less than 10 is denoted as B) | C (A compound having a KD ratio of 0.1 or more and less than 3 is denoted as C) | 1.3 nM
CCCN1C(=O)CN(C)C(=O)CN(CC)C(=O)[C@H]([C@@H](C)CC)NC(=O)[C@H](CC(C)C)N(C)C(=O)C[C@@H](C(=O)N2CCOCC2)NC(=O)[C@H](C2CCCC2)N(C)C(=O)C2(CCC2)NC(=O)[C@@H]2C[C@@H](OCC)CN2C(=O)[C@H](CCc2ccc(C(F)(F)F)c(Cl)c2)NC(=O)CN(C)C(=O)[C@@H]1Cc1ccc(C(F)(F)F)cc1 [PP0336] ([NMeL]I[NEtG][Sar][NPrPhe(4-CF3)][Sar][hPhe(3-Cl-4-CF3)][Hyp](Et)[Ac4c][NMeGly(cPent)]D-Morpholide; lactam N-11) | B (a compound having 3 or more and less than 10 is denoted as B) | B (a compound having 3 or more and less than 10 is denoted as B) | 1.6 nM
CCCN1C(=O)CN(C)C(=O)[C@@H]2CCN2C(=O)[C@H]([C@@H](C)CC)NC(=O)[C@H](CC(C)C)N(C)C(=O)C[C@@H](C(=O)N2CCOCC2)NC(=O)[C@H](C2CCCC2)N(C)C(=O)C2(CCCC2)NC(=O)[C@@H]2CCCN2C(=O)[C@H](CCc2ccc(C(F)(F)F)c(Cl)c2)NC(=O)CN(C)C(=O)[C@@H]1Cc1ccc(C(F)(F)F)cc1 [PP0337] ([NMeL]I[Aze][Sar][NPrPhe(4-CF3)][Sar][hPhe(3-Cl-4-CF3)]P[Ac5c][NMeGly(cPent)]D-Morpholide; lactam N-11) | B (a compound having 3 or more and less than 10 is denoted as B) | B (a compound having 3 or more and less than 10 is denoted as B) | 2.5 nM
CCCN1C(=O)CN(C)C(=O)[C@@H]2CCN2C(=O)[C@H]([C@@H](C)CC)NC(=O)[C@H](CC(C)C)N(C)C(=O)C[C@@H](C(=O)N2CCOCC2)NC(=O)[C@H](C2CCCC2)N(C)C(=O)C2(CCCC2)NC(=O)[C@@H]2CC(F)(F)CN2C(=O)[C@H](CCc2ccc(C(F)(F)F)c(Cl)c2)NC(=O)CN(C)C(=O)[C@@H]1Cc1ccc(C(F)(F)F)cc1 [PP0339] ([NMeL]I[Aze][Sar][NPrPhe(4-CF3)][Sar][hPhe(3-Cl-4-CF3)][Pro(4,4-F2)][Ac5c][NMeGly(cPent)]D-Morpholide; lactam N-11) | B (a compound having 3 or more and less than 10 is denoted as B) | B (a compound having 3 or more and less than 10 is denoted as B) | 5 nM
CCCN1C(=O)CN(C)C(=O)[C@@H]2CCN2C(=O)[C@H]([C@@H](C)CC)NC(=O)[C@H](CC(C)C)N(C)C(=O)C[C@@H](C(=O)N2CCOCC2)NC(=O)[C@H](C2CCCC2)N(C)C(=O)C2(CCC2)NC(=O)[C@@H]2C[C@@H](OCC)CN2C(=O)[C@H](CCc2ccc(C(F)(F)F)c(Cl)c2)NC(=O)CN(C)C(=O)[C@@H]1Cc1ccc(C(F)(F)F)cc1 [PP0342] ([NMeL]I[Aze][Sar][NPrPhe(4-CF3)][Sar][hPhe(3-Cl-4-CF3)][Hyp](Et)[Ac4c][NMeGly(cPent)]D-Morpholide; lactam N-11) | B (a compound having 3 or more and less than 10 is denoted as B) | B (a compound having 3 or more and less than 10 is denoted as B) | 1.7 nM
CCCN1C(=O)[C@@H]2CCN2C(=O)[C@H](C)N(C)C(=O)[C@H]([C@@H](C)CC)NC(=O)[C@H](CC(C)C)N(C)C(=O)C[C@@H](C(=O)N2CCOCC2)NC(=O)[C@H](C2CCCC2)N(C)C(=O)C2(CCCC2)NC(=O)[C@@H]2CCCN2C(=O)[C@H](CCc2ccc(C(F)(F)F)c(Cl)c2)NC(=O)CN(C)C(=O)[C@@H]1Cc1ccc(C(F)(F)F)cc1 [PP0343] ([NMeL]I[NMeA][Aze][NPrPhe(4-CF3)][Sar][hPhe(3-Cl-4-CF3)]P[Ac5c][NMeGly(cPent)]D-Morpholide; lactam N-11) | C (A compound having a KD ratio of 0.1 or more and less than 3 is denoted as C) | B (a compound having 3 or more and less than 10 is denoted as B) | 1.3 nM
CCCN1C(=O)[C@@H]2CCN2C(=O)[C@H](C)N(C)C(=O)[C@H]([C@@H](C)CC)NC(=O)[C@H](CC(C)C)N(C)C(=O)C[C@@H](C(=O)N2CCOCC2)NC(=O)[C@H](C2CCCC2)N(C)C(=O)C2(CCC2)NC(=O)[C@@H]2CCCN2C(=O)[C@H](CCc2ccc(C(F)(F)F)c(Cl)c2)NC(=O)CN(C)C(=O)[C@@H]1Cc1ccc(C(F)(F)F)cc1 [PP0344] ([NMeL]I[NMeA][Aze][NPrPhe(4-CF3)][Sar][hPhe(3-Cl-4-CF3)]P[Ac4c][NMeGly(cPent)]D-Morpholide; lactam N-11) | C (A compound having a KD ratio of 0.1 or more and less than 3 is denoted as C) | B (a compound having 3 or more and less than 10 is denoted as B) | 1.1 nM
CCCN1C(=O)[C@@H]2CCN2C(=O)[C@H](C)N(C)C(=O)[C@H]([C@@H](C)CC)NC(=O)[C@H](CC(C)C)N(C)C(=O)C[C@@H](C(=O)N2CCOCC2)NC(=O)[C@H](C2CCCC2)N(C)C(=O)C2(CCCC2)NC(=O)[C@@H]2CC(F)(F)CN2C(=O)[C@H](CCc2ccc(C(F)(F)F)c(Cl)c2)NC(=O)CN(C)C(=O)[C@@H]1Cc1ccc(C(F)(F)F)cc1 [PP0345] ([NMeL]I[NMeA][Aze][NPrPhe(4-CF3)][Sar][hPhe(3-Cl-4-CF3)][Pro(4,4-F2)][Ac5c][NMeGly(cPent)]D-Morpholide; lactam N-11) | C (A compound having a KD ratio of 0.1 or more and less than 3 is denoted as C) | B (a compound having 3 or more and less than 10 is denoted as B) | 1.3 nM
CCCN1C(=O)[C@@H]2CCN2C(=O)[C@H](C)N(C)C(=O)[C@H]([C@@H](C)CC)NC(=O)[C@H](CC(C)C)N(C)C(=O)C[C@@H](C(=O)N2CCOCC2)NC(=O)[C@H](C2CCCC2)N(C)C(=O)C2(CCC2)NC(=O)[C@@H]2CC(F)(F)CN2C(=O)[C@H](CCc2ccc(C(F)(F)F)c(Cl)c2)NC(=O)CN(C)C(=O)[C@@H]1Cc1ccc(C(F)(F)F)cc1 [PP0346] ([NMeL]I[NMeA][Aze][NPrPhe(4-CF3)][Sar][hPhe(3-Cl-4-CF3)][Pro(4,4-F2)][Ac4c][NMeGly(cPent)]D-Morpholide; lactam N-11) | C (A compound having a KD ratio of 0.1 or more and less than 3 is denoted as C) | B (a compound having 3 or more and less than 10 is denoted as B) | 1.2 nM
CCCN1C(=O)[C@@H]2CCN2C(=O)[C@H](C)N(C)C(=O)[C@H]([C@@H](C)CC)NC(=O)[C@H](CC(C)C)N(C)C(=O)C[C@@H](C(=O)N2CCOCC2)NC(=O)[C@H](C2CCCC2)N(C)C(=O)C2(CCCC2)NC(=O)[C@@H]2C[C@@H](OCC)CN2C(=O)[C@H](CCc2ccc(C(F)(F)F)c(Cl)c2)NC(=O)CN(C)C(=O)[C@@H]1Cc1ccc(C(F)(F)F)cc1 [PP0347] ([NMeL]I[NMeA][Aze][NPrPhe(4-CF3)][Sar][hPhe(3-Cl-4-CF3)][Hyp](Et)[Ac5c][NMeGly(cPent)]D-Morpholide; lactam N-11) | C (A compound having a KD ratio of 0.1 or more and less than 3 is denoted as C) | B (a compound having 3 or more and less than 10 is denoted as B) | 0.36 nM
